target: T1, Inhibitor of nuclear factor kappa-B kinase subunit beta (Homo sapiens, UniProt O14920); experiment: Inhibition of human recombinant C-terminal FLAG-epitope-tagged IKK2 expressed in baculovirus infected insect cells using biotinylated IkappaBalpha peptide as substrate in presence of [gamma-33P]-ATP after 30 mins by resin-based scintillation counting method
T1 sequence (O14920 whole entry): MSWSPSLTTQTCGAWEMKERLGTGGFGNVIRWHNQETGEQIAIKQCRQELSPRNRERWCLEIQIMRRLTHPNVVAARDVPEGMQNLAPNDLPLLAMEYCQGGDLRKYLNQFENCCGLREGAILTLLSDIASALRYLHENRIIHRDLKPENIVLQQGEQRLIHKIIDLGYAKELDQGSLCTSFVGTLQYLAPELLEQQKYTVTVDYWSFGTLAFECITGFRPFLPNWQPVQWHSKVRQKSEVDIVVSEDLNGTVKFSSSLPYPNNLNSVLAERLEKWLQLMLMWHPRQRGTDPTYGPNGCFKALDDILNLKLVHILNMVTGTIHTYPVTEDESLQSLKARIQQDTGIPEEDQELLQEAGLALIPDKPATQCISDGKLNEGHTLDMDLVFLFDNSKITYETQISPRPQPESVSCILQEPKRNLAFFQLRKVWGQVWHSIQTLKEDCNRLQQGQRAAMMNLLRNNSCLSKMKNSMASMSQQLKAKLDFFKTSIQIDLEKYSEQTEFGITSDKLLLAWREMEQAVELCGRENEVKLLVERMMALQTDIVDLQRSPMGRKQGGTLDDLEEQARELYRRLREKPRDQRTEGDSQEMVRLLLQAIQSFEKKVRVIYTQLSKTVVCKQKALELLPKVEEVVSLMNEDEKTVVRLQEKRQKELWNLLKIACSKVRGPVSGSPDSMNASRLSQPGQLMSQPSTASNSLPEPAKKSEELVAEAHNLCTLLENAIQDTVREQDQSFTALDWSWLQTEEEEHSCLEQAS

| SMILES | IC50 |
| --- | --- |
| CC(=O)N1Cc2c(C(N)=O)nn(-c3ccc(F)cc3)c2-c2cc(NC(=O)c3cccnc3Cl)ccc21 | < 1 µM |
| CC(=O)N1Cc2c(C(N)=O)nn(-c3ccc4c(c3)OCO4)c2-c2cc(NC(=O)c3cccnc3Cl)ccc21 | < 1 µM |
| NC(=O)c1nn(-c2ccc3c(c2)OCO3)c2c1COc1ccc(NC(=O)c3cccnc3Cl)cc1-2 | ≤ 1 µM |
